In patent US20250177425A1, “SAIKOSAPONIN C AS COMPOSITION FOR TREATING OR PREVENTING AGE-RELATED VASCULAR DISEASES INCLUDING ARTERIOSCLEROSIS” (AGINGTARGET, INC., priority 2022, published 2025):

Columns and labels:
Assay type in all cases: cell-based, human
[1] = system: eNOS / nitric oxide in HPAEC; assay: NOS-NO signaling: nitric oxide level, eNOS activity, expression, phosphorylation; conditions: 5 μM and 20 μM pretreatment 2 hours, 33 mM high glucose 36 hours, dose-dependent
Procedure: (§1) Similar to Experimental Example 1, a high-fat diet evaluation system at the cellular level was established.
(§2) Specifically, two types of vascular endothelial cells, namely, HUVEC and HPAEC cells, were pretreated with Saikosaponin C at concentrations of 5 μM and 20 μM for 2 hours, and then treated with high glucose at a concentration of 33 mM for 36 hours. Then, the nitric oxide (NO) concentration, endothelial nitric oxide synthase (eNOS) activity, protein expression, and phosphorylation level were analyzed.
(§3) Nitric oxide production was measured using a Nitric Oxide Assay Kit (FIG. 6A and FIG. 6B). Specifically, nitrate (NO3^−) and nitrite (NO2^−) levels were measured using nitrate reductase and Griess reagent. Nitric oxide synthase activity was measured using a NOS Activity Assay Kit (FIG. 6C and FIG. 6D) and the expression and phosphorylation (Ser114) of NOS were measured by Western blotting (FIG. 6E and FIG. 6F).

[2] = system: eNOS / nitric oxide in HUVEC; assay: as above; conditions: 5 μM and 20 μM pretreatment 2 hours, 33 mM high glucose 36 hours, dose-dependent
Procedure: as §1, §2, §3

[3] = system: ICAM-1 and VCAM-1 in HCAEC; assay: Western blotting of adhesion proteins after TNF-α; conditions: 5 μM and 20 μM pretreatment 2 hours, TNF-α 20 ng/ml 8 hours
Procedure: (§4) Specifically, two types of vascular endothelial cells, namely, HUVEC (human umbilical vein endothelial cells) and HCAEC (human coronary artery endothelial cells), were pretreated with Saikosaponin C at concentrations of 5 μM and 20 μM for 2 hours, and then treated with TNF-α (20 ng/ml) for 8 hours. Then, adhesion of monocyte-vascular endothelial cell and expression of cell adhesion molecules (ICAM-1, VCAM-1) of vascular endothelial cells were observed. […] The adhesion of monocyte-endothelial cells was evaluated by imaging analysis using a confocal microscope and fluorescence analysis using a microplate reader, and expression of adhesion proteins (ICAM-1 and VCAM-1) was evaluated by Western blotting.
(§5) Calcein AM fluorescence was analyzed using a confocal microscope and a microplate reader, and the expression of cell adhesion proteins (ICAM-1, VCAM-1) were evaluated through Western blotting.
(§6) FIGS. 9A and 9B show the results of analysis of monocyte-endothelial cell adhesion in two types of vascular endothelial cells (HUVEC, HCAEC) using a confocal microscope, and FIGS. 9C and 9D show the results of analysis of Calcein AM fluorescence (at an excitation wavelength of 488 nm, and at an emission wavelength of 517 nm) in the same experiment using a microplate reader. […]

[4] = system: ICAM-1 and VCAM-1 in HUVEC; assay: Western blotting of adhesion proteins after TNF-α; conditions: 5 μM and 20 μM pretreatment 2 hours, TNF-α 20 ng/ml 8 hours
Procedure: as §4, §5, §6

[5] = system: HPAEC; assay: Cell cycle analysis by flow cytometry (PI), high glucose-induced G1 phase arrest; conditions: 5 μM and 20 μM pretreatment 2 hours, 33 mM high glucose 48 hours, dose-dependent
Procedure: as §1
(§7) Specifically, two types of vascular endothelial cells, namely, HUVEC and HPAEC cells, were pretreated with Saikosaponin C at concentrations of 5 μM and 20 μM for 2 hours, then treated with high glucose (33 mM) for 48 hours, and then immobilized with cold 70% ethanol. The DNA of the immobilized vascular endothelial cells was stained with PI (propidium iodide, 50 μg/ml) solution and the cell cycle was analyzed using a flow cytometer. In addition, the expression of cell cycle regulatory proteins such as p21, p27, and p16 was analyzed after treatment with high glucose (33 mM) for 36 hours.
(§8) Since cellular senescence is closely related to the arrest in the G1 phase of the cell cycle, the cell cycle was evaluated using flow cytometry (FIG. 4A and FIG. 4B). In addition, the expression of p21, p27, and p16 proteins, which are G1 phase growth arrest-inducing proteins, was measured through Western blotting (FIG. 4C, FIG. 4D).

[6] = system: HUVEC; assay: as above; conditions: 5 μM and 20 μM pretreatment 2 hours, 33 mM high glucose 48 hours, dose-dependent
Procedure: as §1, §7, §8

CC1O[C@@H](O[C@@H]2C(CO[C@@H]3OC(CO)[C@@H](O)C(O)C3O)O[C@@H](O[C@H]3CC[C@]4(C)[C@H]5C=C[C@]67OC[C@@]8(CCC(C)(C)C[C@H]86)[C@@H](O)C[C@@]7(C)[C@]5(C)CC[C@H]4C3(C)C)C(O)C2O)C(O)C(O)[C@H]1O (stereo partly drawn) [Saikosaponin C]
high glucose-induced decrease in NOS-NO signaling (NO level, eNOS enzymatic activity, protein expression, phosphorylation) [1]: significantly alleviated
high glucose-induced decrease in NOS-NO signaling (NO level, eNOS enzymatic activity, protein expression, phosphorylation) [2]: significantly alleviated
expression of adhesion proteins (ICAM-1, VCAM-1) of vascular endothelial cells [3]: inhibited
expression of adhesion proteins (ICAM-1, VCAM-1) of vascular endothelial cells [4]: inhibited
high glucose-induced G1 phase arrest [5]: significantly abolished
high glucose-induced G1 phase arrest [6]: significantly abolished
